According to article PMC12586598, “A novel long-acting C5a-blocking cyclic peptide prevents sepsis-induced organ dysfunction via effective blockade of the inflammatory cascade” (Signal Transduction and Targeted Therapy, 2025):
Where a SMILES comes first, the peptide text is derived from it.

Legend:
in vitro = conditions: C57BL/6, mouse, plasma
Source text: The peptides in the plasma were extracted with 15% TFA and quantified via reversed-phase high-performance liquid chromatography (HPLC) (Agilent 1260, USA).

CLP model mice = assay: Routine blood test: neutrophils and monocytes in CLP model mice; format: in vivo, mouse; conditions: 100 μg/20 g i.v.
Protocol: The cecal ligation and puncture (CLP) model was established in male C57BL/6 mice (9-10 weeks old). Briefly, a midline laparotomy was performed to exteriorize the cecum under general anesthesia. The cecum was ligated at the distal three-quarters using sutures. Subsequently, a single through-and-through puncture was made in the ligated segment using a 22-gaμge needle, followed by small volume of fecal content was gentle extrusion. The cecum was then repositioned within abdominal cavity, and the laparotomy incision was closed in layers. All animals were administered 1 mL of sterile saline for postoperative fluid resuscitation. Sham-operated controls underwent identical surgical procedures without cecal ligation or puncture. In this work, mice received administration via intravenous injection 1 hour after CLP surgery. The animal mortality was determined by the presence of confirmed death. […] Subsequently, mice were sacrificed to collect the main organs for morphological and pathological analysis.

[1] = test system: human peripheral blood mononuclear cells (PBMCs); assay: RNA sequencing of C5a-stimulated PBMCs; format: cell-based; conditions: |log2FoldChange| ≥ 1, P < 0.05
Protocol: Human peripheral mononuclear cells were stimulated with 100 ng/mL of human C5a protein (MCE, China) or a complex of human C5a with Cp1 for 1 h. After RNA extraction, purification and library construction, the Next-Generation Sequencing (NGS) technology was used to perform paire-end (PE) sequencing based on Illumina sequencing platform in Bioprofile Biotechnology Co., Ltd (Shanghai, China). The expression of each gene was calculated and further subjected to differential expression analysis, enrichment analysis and cluster analysis.

CLP-induced septic mice = assay: Organ function, coagulation and lung histology in CLP mice; format: in vivo, mouse; conditions: 24 h post-CLP surgery
Protocol: The cecal ligation and puncture (CLP) model was established in male C57BL/6 mice (9-10 weeks old). Briefly, a midline laparotomy was performed to exteriorize the cecum under general anesthesia. The cecum was ligated at the distal three-quarters using sutures. Subsequently, a single through-and-through puncture was made in the ligated segment using a 22-gaμge needle, followed by small volume of fecal content was gentle extrusion. The cecum was then repositioned within abdominal cavity, and the laparotomy incision was closed in layers. All animals were administered 1 mL of sterile saline for postoperative fluid resuscitation. Sham-operated controls underwent identical surgical procedures without cecal ligation or puncture. In this work, mice received administration via intravenous injection 1 hour after CLP surgery. The animal mortality was determined by the presence of confirmed death. […] Blood samples were collected 24 hours after CLP-modeling for hematological analysis (Mindray BC-60R Vet) and biochemical analysis (Mindray BS-240 Vet, China), endothelial injury analysis (Njjcbio, Nanjing) and coagulation analysis (Legene, Beijing). Subsequently, mice were sacrificed to collect the main organs for morphological and pathological analysis.

mouse C5a-desArg = biological target: T1, mouse C5a-desArg (Mus musculus, UniProt P06684); assay: SPR binding affinity assay, immobilized mouse C5a-desArg
T1 construct: mouse C5a-desArg (MCE, Shanghai, China); purchased MCE
T1 sequence (P06684 679-754 limits assumed): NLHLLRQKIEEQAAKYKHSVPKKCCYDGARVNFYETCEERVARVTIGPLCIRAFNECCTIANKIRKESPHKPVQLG
Protocol: Surface plasmon resonance (SPR) analysis was conducted using Biacore 2000 system (GE Healthcare, Germany) at 37°C in running buffer (20 mM Tris-HCl, pH 7.4, 150 mM NaCl, 5 mM KCl, 1 mM MgCl₂, 1 mM CaCl₂). The CM5 sensor chips (GE Healthcare) were activated with NHS/EDC, followed by immobilization of mouse C5a (ACROBiosystems, Beijing, China), human C5a (ACROBiosystems, Beijing, China), mouse C5 (ACROBiosystems, Beijing, China) or mouse C5a-desArg (MCE, Shanghai, China). The peptide-protein interactions were characterized using a concentration-gradient approach (low to high) with a continuous flow rate of 30 μL/min (150 s injection duration). Between analyte concentrations, the sensor surface was regenerated with 10 mM glycine-HCl (pH 2.0; 5 min treatment). Binding and dissociation constants were obtained by globally fitting the data to a 1:1 Langmuir binding model using a Biacore Insight evaluation software (Cytiva, USA).

C5a-C5aR1 = biological target: T2, C5a-C5aR1 (Homo sapiens, UniProt P01031); assay: Validation of Cp1-specific blockade of C5a-C5aR1 by flow cytometry on PMNs; format: cell-based; conditions: resting and TNF-α activated PMNs, Cy5-C5a
T2 construct: 10 ng of Cy5-labeled human C5a (MCE, Shanghai, China); purchased MCE; host or cells: PMNs from Oribiotech Co., Ltd. (endogenous receptor)
T2 sequence (P01031 678-751): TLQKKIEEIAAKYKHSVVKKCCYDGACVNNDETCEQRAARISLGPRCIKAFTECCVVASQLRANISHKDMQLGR
Protocol: To validate the Cp1-specific blockade of C5a-C5aR1. PMNs isolated by flow cytometric sorting from Oribiotech Co., Ltd. (Shanghai, China) were preincubated with C5aR1-antibody (5 μg), C5aR2-antibody (5 μg), Cp1 (10 μg), Cp1 (10 μg)+C5aR1-antibody (5 μg) or Cp1 (10 μg)+C5aR2-antibody (5 μg) at room temperature for 0.5 h, followed by incubation with 10 ng of Cy5-labeled human C5a (MCE, Shanghai, China) at 4 °C for 0.5 h in the dark. The samples were subsequently centrifuged, washed with PBS and detected via flow cytometry. PMNs were stimulated with 10 ng/mL TNF-α for 12 hours to perform competitive binding assays under activated conditions.

PMNs = assay: C5a-triggered chemotaxis assay, PMNs (IncuCyte); format: cell-based, human; conditions: 10 ng to 1 μg per well, 24 h
Protocol: The chemotaxis assay in this study was monitored and quantified by the IncuCyte ZOOM® Live-Cell Imaging System. The y-axis label “total area normalized to initial area in each group” in Fig. 3k, m represent the ratio of the total cell area at each time point to the initial area (0 h) within the same field of view. A higher ratio indicates […] cell migration activity.
One hundred nanograms of human C5a protein (ACROBiosystems, Beijing, China) was preincubated with linear or cyclic peptides at the indicated concentrations (10 ng, 100 ng, or 1 μg) in 1640 complete culture medium for 30 min. PMNs isolated by flow cytometric sorting for chemotaxis assays were purchased from Oribiotech Co., Ltd. (Shanghai, China). A total of 1 × 10^4 cells were added to the upper chamber of 96-well cell chemotaxis plates (Sartorius, Germany) and allowed to migrate at 37 °C for 24 h. The chemotactic response of neutrophils toward C5a with or without C5a-blocking peptides was quantified and analyzed via an IncuCyte ZOOM® Live-Cell Imaging System (Sartorius, Germany). The chemotactic response of mouse neutrophils was assessed following the established protocol for PMNs.

## CSCC[C@@H]1NC(=O)[C@@H]2CCCN2C(=O)[C@H](CCSC)NC(=O)[C@H](CO)NC(=O)[C@H](Cc2c[nH]cn2)NC(=O)CNC(=O)[C@H](CO)NC(=O)[C@H](Cc2ccccc2)NC(=O)[C@H](CCCNC(=N)N)NC(=O)[C@H](CCC(=O)O)NC(=O)[C@H](Cc2ccccc2)NC(=O)[C@H](C(C)C)NC1=O [Cp1] (cyclo(HSMPMVFERFSG))
In vitro
  remaining at 24 h: > 95%
CLP model mice; 12 h
  increase of absolute monocyte count (delayed peak) vs sham group: 69%
  reduction in absolute neutrophil count vs CLP group: 63%
CLP model mice; peak at 12 h
  reduction in absolute monocyte count vs the 4-h peak value in the CLP group: 38%
[1]
  DEGs downregulated after Cp1 preincubation: 2235
CLP-induced septic mice; 100 μg/20 g
  LDH and LAC levels: marked reduction
  coagulation function parameters (PT, APTT, TT, Fbg): attenuated the sepsis-induced changes in the clotting and fibrinolytic systems
  serum ALT and AST levels (liver function): effectively mitigated the increase
CLP-induced septic mice; 100 μg/20 g, vs untreated CLP mice
  serum UREA and CREA levels (kidney injury): significantly lower
CLP-induced septic mice
  lung injury, H&E pathological sections: significantly ameliorated sepsis-induced pulmonary vascular leakage
Mouse C5a-desArg; pH 7.4, read-out: Ka vs mC5a-desArg (SPR)
  kon: 2490 M⁻¹ s⁻¹
Mouse C5a-desArg; read-out: Kd (dissociation rate) vs mC5a-desArg (SPR)
  koff: 0.0089 s⁻¹
C5a-C5aR1
  specificity of blocking the C5a-C5aR1 axis: selective blockade of the C5a‒C5aR1 interaction
PMNs
  suppression of C5a-driven recruitment of PMNs: dose-dependently suppressed
